Measurements: PubChem BioAssay (NCI)
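Protocol summary: plate cells (96-well), add compound at 5 concentrations, incubate 48 h, interpolate endpoints linearly. Definition used: TGI = concentration required for complete inhibition of growth.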

Columns and labels:
Assay in all cases: inhibition of tumour cell growth, NCI panel, 48 h
K-562 leukemia = system: K-562 leukemia
MDA-N = system: MDA-N
MALME-3M melanoma = system: MALME-3M melanoma
HCC-2998 colon = system: HCC-2998 colon
KM12 colon = system: KM12 colon
M14 melanoma = system: M14 melanoma
SR leukemia = system: SR leukemia
PC-3 prostate = system: PC-3 prostate
HS 578T breast = system: HS 578T breast
SK-MEL-2 melanoma = system: SK-MEL-2 melanoma

Structure (SMILES) | TGI (K-562 leukemia) | TGI (MDA-N) | TGI (MALME-3M melanoma) | TGI (HCC-2998 colon) | TGI (KM12 colon) | TGI (M14 melanoma) | TGI (SR leukemia) | TGI (PC-3 prostate) | TGI (HS 578T breast) | TGI (SK-MEL-2 melanoma)
CCOC(=O)CC(=O)NC1CC2CCC1(C)C2(C)C (stereo not given) | > 100 µM | > 100 µM | > 100 µM | > 100 µM | > 100 µM | > 100 µM | > 100 µM | > 100 µM | > 100 µM | 
CC(=O)OCC1OC(On2ccccc2=S)C(OC(C)=O)C(OC(C)=O)C1OC(C)=O (stereo not given) | > 100 µM | > 100 µM | > 100 µM | > 100 µM | > 100 µM | > 100 µM |  | > 100 µM | > 100 µM | > 100 µM
CCC1(C)C=Cc2c(cc(OC)c3c(=O)c4ccccc4n(C)c23)O1 (stereo not given) | > 10 µM | > 10 µM | > 10 µM | > 10 µM | > 10 µM | > 10 µM |  | > 10 µM | > 10 µM | > 10 µM
COc1c(CC=C(C)C)c(O)c(C(CC(C)C)c2c(O)c(C(C)=O)c(O)c3c2OC(C(C)(C)O)C3)c(O)c1C(C)=O (stereo not given) | > 12.5 µM | > 12.5 µM | > 12.5 µM | > 12.5 µM |  | > 12.5 µM | 10.4 µM |  | > 12.5 µM | 
Cc1ccc(-c2c(C#N)c(-c3ccc(Cl)cc3)c(C#N)c(=O)n2NS(=O)(=O)c2ccccc2)cc1 | > 100 µM | > 100 µM | > 100 µM | > 100 µM | > 100 µM | > 100 µM |  | > 100 µM | > 100 µM | > 100 µM
CCN1CC2=C(N=c3s/c(=C\c4ccc(Cl)cc4)c(=O)n3C2c2ccc(Cl)cc2)/C(=C/c2ccc(Cl)cc2)C1 (stereo not given) | > 100 µM | > 100 µM | > 100 µM | > 100 µM | > 100 µM | > 100 µM |  | > 100 µM | > 100 µM | > 100 µM
O=C(O)CC(C(=O)O)c1ccccc1[N+](=O)[O-] (stereo not given) | > 100 µM | > 100 µM | > 100 µM | > 100 µM | > 100 µM | > 100 µM |  | > 100 µM | > 100 µM | > 100 µM
COC(CN(C)C(=O)C(C)NC(=O)c1ccccc1)OC (stereo not given) | > 100 µM | > 100 µM | > 100 µM |  | > 100 µM | > 100 µM | > 100 µM | > 100 µM | > 100 µM | > 100 µM
Cc1ccc2c(c1)SSSSS2 | > 100 µM | 87.1 µM | 44.6 µM | 31.6 µM | 34 µM | 58.6 µM | > 100 µM | 57.8 µM | 69.6 µM | 
CCOC(=O)/C(C#N)=C/c1ccc2c(-c3c(OCC)ccc4cc(/C=C(\C#N)C(=O)OCC)ccc34)c(OCC)ccc2c1 | > 100 µM | > 100 µM | > 100 µM | > 100 µM | > 100 µM | 35.7 µM |  | > 100 µM | > 100 µM | > 100 µM
CC(C)(C)OC(=O)[N+](=N)C(=O)C1CCC(=O)N1C(=O)OCc1ccccc1 (stereo not given) | > 100 µM | > 100 µM | > 100 µM | > 100 µM | > 100 µM | > 100 µM | > 100 µM | > 100 µM | > 100 µM | 
COc1cc(NS(C)(=O)=O)ccc1NCc1cnc2ccc3[nH]c(C)ccc3c12 | 62.2 µM | > 100 µM | > 100 µM |  | > 100 µM | > 100 µM | 33.5 µM | > 100 µM | > 100 µM | 52.3 µM
O=c1[nH]c2ccc(C(F)(F)F)cc2nc1-c1ccccc1 | > 100 µM | > 100 µM | > 100 µM | > 100 µM |  | > 100 µM | > 100 µM | > 100 µM | > 100 µM | 
CC(=O)ON(OC(C)=O)c1ccc(C)cc1 | > 100 µM | > 100 µM | > 100 µM | > 100 µM | > 100 µM | > 100 µM |  | > 100 µM | > 100 µM | > 100 µM
Cc1[nH]c2ncn3nc(C(Cl)(Cl)Cl)nc3c2c1Cc1ccccc1 |  | > 100 µM | > 100 µM | > 100 µM | > 100 µM | > 100 µM |  | > 100 µM | > 100 µM | > 100 µM
O=c1c(O)c(-c2ccc(O)cc2O)oc2cc(O)cc(O)c12 | > 100 µM | > 100 µM | > 100 µM | > 100 µM | > 100 µM | > 100 µM |  | > 100 µM | > 100 µM | > 100 µM
CC(C)=CCC[C@]1(C)CC[C@]2(C)C3CCC(=C(C)C)[C@@H](CCCO)[C@]3(C)CC[C@@]2(C)C1 (stereo not given in full) |  | > 100 µM | > 100 µM | > 100 µM | > 100 µM | > 100 µM |  | > 100 µM | > 100 µM | 71.5 µM
Cc1cc(-c2ccc(C(=O)O)[nH]2)on1 | > 100 µM | 23.7 µM | > 100 µM | > 100 µM | > 100 µM | > 100 µM |  | > 100 µM | > 100 µM | > 100 µM
CN(C)CCCNc1c(O)c2c(c(O)c1Cl)C(=O)C=CC2=O | > 10 µM | 6.38 µM | 3.25 µM | 3.22 µM | > 10 µM | 2.9 µM |  | 6.83 µM | 3.65 µM | 
